# Assay results published in US20210275516A1, “LACTATE ENHANCING COMPOUNDS AND USES THEREOF” (ECOLE POLYTECHNIQUE FEDERALE DE LAUSANNE (EPFL), priority 2018, published 2021).
# Legend:
# [1] = tested on: primary cultures of cerebrocortical astrocytes; experiment: Extracellular lactate quantification (lactate release from primary astrocytes); assay type: cell-based; details: primary mouse astrocytes, 90 min
# Protocol: (§1) Primary cultures of cerebrocortical astrocytes were obtained from 1 to 2-day-old OF1 mouse pups (Charles River). Briefly, cortices were isolated and minced in small pieces under a dissecting microscope. The cells were incubated for 30 min at 37° C. in a solution containing 20 U/ml papain, 1 mM L-cysteine and 10 kU/ml DNase I. After dissociation, papain activity was stopped by the addition of fetal calf serum (FCS). Single-cell suspension was then obtained by mechanical dissociation, which consisted in cells trituration in a DMEM D7777 medium supplemented with 44 mm NaHCO3, 10 ml/L antibiotic/antimycotic solution and 10% FCS. […]
# Secretion of L-lactate was measured in the extracellular medium of 96-well plated astrocytes after 90 min stimulation (at 37° C., in 5% CO2/95% air conditions) with Vehicle (DMSO), the compounds of the invention (100 nM to 100 μM) or positive control. […] To quantify lactate concentrations in the extracellular medium, 200 μl of a 0.2M Glycine-semicarbazide buffer (pH 10) containing 3 mM NAD and 14 U/ml LDH was added to each well of a 96-well plate containing 30 μl aliquots of extracellular medium. […] Fluorescence intensity (340 nm excitation/450 nm emission), which represents the amount of NADH produced, was measured, and lactate concentration values were determined relative to a standard curve of L-lactate concentrations. […]
# [2] = tested on: primary astrocytes; experiment: Intracellular glycogen quantification in astrocytes; assay type: cell-based, mouse; details: 10 μM, 3 h, vs vehicle
# Protocol: as §1
# Astrocytes grown on 12-well plates were used for intracellular glycogen quantifications. […]
# First, the amount of proteins in each sample was quantified to assess whether harvested astrocytes from primary cell cultures yielded enough and equivalent amounts of proteins on each replicates. Proteins were quantified using the micro BCA Protein Assay kit (Thermo Scientific), according to manufacturer's instructions. Next, intracellular glycogen concentrations were quantified using a 250 μl-aliquot of the same stimulated, thawed, and sonicated cell lysate. […] Fluorescence intensity (340 nm excitation/440 nm emission) was measured using a Safire 2 spectrophotometer. […]
# [3] = tested on: primary astrocytes; experiment: MTT mitochondrial activity assay in astrocytes; assay type: cell-based, mouse; details: 24 h, maximum concentration (200 μM)
# Protocol: Primary cultures of cerebrocortical astrocytes were obtained from 1 to 2-day-old OF1 mouse pups (Charles River). Briefly, cortices were isolated and minced in small pieces under a dissecting microscope. The cells were incubated for 30 min at 37° C. in a solution containing 20 U/ml papain, 1 mM L-cysteine and 10 kU/ml DNase I. After dissociation, papain activity was stopped by the addition of fetal calf serum (FCS). Single-cell suspension was then obtained by mechanical dissociation, which consisted in cells trituration in a DMEM D7777 medium supplemented with 44 mm NaHCO3, 10 ml/L antibiotic/antimycotic solution and 10% FCS. The cells were seeded at an average density of 6×10^4 cells/cm^2 on poly-D-lysine-coated 96- or 12-well culture plates, depending on their use, and grown in DMEM D7777 medium supplemented with 44 mm NaHCO3, 10 ml/L antibiotic/antimycotic solution and 10% FCS at 37° C. in a humidified atmosphere containing 5% CO2/95% air. Culture medium was renewed twice a week. Cells were stimulated and harvested between DIV14 and DIV17, when confluence and cell growth were optimal.
# To monitor mitochondrial activity in astrocytes, which is linked to the metabolic process of glycolysis and production of lactate, astrocytes in 96-well plates were stimulated for 24 h (37° C. 5% CO2/95% air) with the compounds of the invention ranging from 0.2 to 200 μM. After stimulation, 5 mg/ml thiazol blue tetrazolium bromide (MTT) in D5030 medium complemented with 5 mM D-glucose and 44 mM sodium bicarbonate (pH 7.2) was added to each well, and cells were incubated for 4 h at 37° C. (5% CO2). The medium was then removed and the amount of reduced MTT, i.e formazan, solubilized in DMSO (50 μl/well) was determined using a spectrophotometer (absorbance of 570 nm).
# The mitochondrial activity in primary astrocytes treated with Compounds (2) to (4) at concentrations ranging from 1 nM to 200 μM. After 24 h, mitochondrial activity was monitored in MTT colorimetric assay as described above (FIG. 3).
# [4] = tested on: cerebral extracellular levels of lactate; experiment: In vivo pharmacodynamics - lactate biosensors; parameters: species or system mouse; details: 3 h recording, freely moving mice, vs vehicle
# Protocol: (§2) For pharmacodynamics (FIG. 4) and cognition (FIG. 6) experiments, adult male C57Bl/6J wild-type mice weighting 18-28 g (8 weeks of age) were used (Charles River). For ALS mouse models (FIG. 5), G93A SOD1 transgenic male and female mice on B6.SJL1-Gur/J background were used (Jackson Laboratory).
# (§3) Animals were housed in groups of 3-5 in polypropylene cages (30×40×15 cm) with wire mesh top in a temperature (22±2° C.) and humidity (55±15%) controlled environment on a 12 hour light cycle (07.00-19.00 h lights on), except after surgeries when animal were housed individually. […]
# Cerebral extracellular levels of lactate were monitored in vivo using lactate biosensors (Pinnacle Technology), according to the manufacturer's instructions. […] After surgery, mice were monitored closely and received analgesic treatment for at least 4 days. […] Concentrations of cerebral extracellular lactate were calculated from lactate probe electric signals using post-calibration values. […] Area Under the Curve (AUC) of lactate concentration curves were calculated using Graphad Prism and the ratio of AUC after drug over Vehicle administration was calculated.
# [5] = tested on: G93A SOD1 mouse model of ALS; experiment: SOD1 G93A mouse ALS model - grip test; assay type: in vivo; details: vs vehicle
# Protocol: as §2, §3
# (§4) Transgenic mice on B6.SJL1-Gur/J background overexpressing the human mutated gene G93A SOD1 were used. […] F1 pups were genotyped after ear punching at weaning, using quantitative PCR (qPCR), which allowed determining the number of SOD1 copies in each mouse.
# (§5) To test for the potential therapeutic effect of the administered compound, SOD1 mice were given orally the compound of the invention (10 mg/kg) or vehicle every day from post-natal day 30 (weaning) throughout their entire life. […] Each mouse's weight was recorded every day throughout the entire treatment, while neuromuscular function was measured once a week. […]
# [6] = tested on: G93A SOD1 mouse model of ALS; experiment: SOD1 G93A mouse ALS model - survival; assay type: in vivo; details: 10 mg/kg orally every day from post-natal day 30 to final stage, G93A SOD1 mice, vs vehicle
# Protocol: as §2, §3, §4, §5
# [7] = tested on: C57Bl/6 wild-type mice; experiment: Long-term memory test - inhibitory avoidance (IA); assay type: in vivo, mouse; details: 100 mg/kg oral single dose 20 min before training
# Protocol: as §2
# Animals were housed in groups of 3-5 in polypropylene cages (30×40×15 cm) with wire mesh top in a temperature (22±2° C.) and humidity (55±15%) controlled environment on a 12 hour light cycle (07.00-19.00 h lights on), except after surgeries when animal were housed individually. The samples (Vehicle or compounds of the invention) were administered per os (gavage) in a solution made of water supplemented with 0.4% hydroxypropyl methylcellulose (HPMC) Methocel 4KM (w/v) and 0.25% Tween-20 (v/v), as previously described (Thackaberry et al., 2010, Toxicol Sci., 117(2):485-92). Concentrations of the compounds tested ranged from 10 to 100 mg/kg.
# IA test is a well-established memory paradigm in rodents that measures contextual memory associated with a mild electrical footshock in a specific context (the dark compartment of the IA chamber). Groups of 8-week old C57Bl/6 wild-type […] mice were tested. Each mouse was handled for 5 minutes per day for at least 4 consecutive days to reduce animal's stress due to experimenter's presence/manipulation during test days. Inhibitory avoidance was carried out in an IA chamber (MedAssociates) that consists in a rectangular Perspex box divided into a safe and a shock compartment separated by an automatically operated sliding door. The safe compartment is white and illuminated while the shock compartment is black and dark. Mice were trained for IA 20 min after oral administration of the drug or vehicle. During training, mice were placed into the safe compartment with their heads facing away from the door. […] Memory retention was measured at 24 h or 3 weeks after training by placing the mouse back into the lit compartment and recording its latency (in seconds) to enter the dark compartment. […]
structure (smiles),measurement,setting,value
"COc1cc2ccnc(Nc3ccc(OC(F)(F)F)cc3)c2cc1OC [Compound 1, 6,7-dimethoxy-N-(4-(trifluoromethoxy)phenyl)isoquinolin-1-amine]",Concentration at which the effect on lactate release is already significant,[1],below 1 μM
same,Degradation of intracellular glycogen,[2],significantly enhances the degradation of intracellular glycogen
same,Remaining mitochondrial activity at maximum concentration compared to vehicle,[3],8.05%
same,Extracellular lactate levels in the brain,[4]; 10 mg/kg per os,significantly increases extracellular lactate levels
same,Extracellular lactate levels in the brain,[4]; 100 mg/kg per os,significantly increases extracellular lactate levels
same,Onset of symptoms (grip test),"[5]; 10 mg/kg orally every day from post-natal day 30, G93A SOD1 mice",delayed the onset of the symptoms
same,Muscle function (grip test),"[5]; 10 mg/kg orally every day from post-natal day 30, measured weekly until 16 weeks of age",remained significantly improved
same,Life span (Kaplan-Meier survival),[6],significantly increased life span
same,Latency to enter the dark compartment at training,[7],same latencies at training
same,"Latency to enter the dark compartment, 3 weeks after training",[7]; vs vehicle,significantly higher
same,"Latency to enter the dark compartment, 24 h after training",[7]; vs vehicle,significantly higher
"COc1cc2ccnc(Nc3ccc(C(F)(F)F)cc3)c2cc1OC [Compound 2, 6,7-dimethoxy-N-(4-(trifluoromethyl)phenyl)isoquinolin-1-amine]",Remaining mitochondrial activity at maximum concentration compared to vehicle,[3],7.86%
"FC(F)(F)Oc1ccc(Nc2nccc3ccccc23)cc1 [Compound 3, N-(4-(trifluoromethoxy)phenyl)isoquinolin-1-amine]",Remaining mitochondrial activity at maximum concentration compared to vehicle,[3],35.9%
"COc1cc2ccnc(Cc3ccc(OC(F)(F)F)cc3)c2cc1OC [Compound 4, 6,7-dimethoxy-1-(4-(trifluoromethoxy)benzyl)isoquinoline]",Remaining mitochondrial activity at maximum concentration compared to vehicle,[3],77.3%
